Patent US6232314A, “Arylalkylpiperazine compounds as antioxidants” (Monash University, priority 1996, dated 2001)
Read-outs that look alike come from different tables or passages of the source.

Key:
[1] = system: lipid peroxidation (MDA formation) in rat brain homogenate; assay: Antioxidant assay: Fe3+-stimulated lipid peroxidation (TBARs / MDA formation) in rat brain homogenate; type: biochemical
Excerpt: Lipid peroxidation has been assessed in the present study using two procedures adopted from that described by Ohkawa et al. (1979) and Cheng et al. (1994). The compounds of the present invention have shown significant antioxidant effect in both assay systems.
Malondialdehyde (MDA) is one of the breakdown products of lipid peroxidation. MDA reacts with thiobarbituric acid (TBA) to produce a characteristic pink colour that can be measured spectrophotomerically. […] The present method has been modified from those described by Ohkawa et al. (1979) and Cheng et al. (1994).
Briefly, rat brain 10% homogenates were prepared in aqueous 20 mM Tris-HCl buffer, pH 7.4 media using a Polytron homogeniser. Assays contained 100 μl of rat brain homogenate and various concentrations of test compound (10 μl) were incubated for 10 min at 37° C. Ten μl of 1.0 or 0.1 mM Fe^3+ solution was then added to stimulate lipid peroxidation and the homogenates were incubated for a further 30 min at 37° C. The reaction was stopped by addition of sodium dodecyl sulphate (100 μl of 8.1% wt/vol solution) and 750 μl of 20% sodium acetate buffer (pH 3.5). The precipitated proteins were then removed by centrifugation at 10000 g for 15 min. Five hundred μl of clear supernatant was heated with 1 ml TBA solution (0.8% wt/vol) at 95° C. for 60 min. The samples were cooled and 200 μl of each sample was pipetted into a 96 well plate and absorbencies read at 532 nm using a Ceres UV900C microplate reader. Blank values representing samples containing 20 mM Tris-HCl and Fe^3+ only were subtracted from all values. Each value was expressed as a percentage of that for samples containing homogenate and Fe^3+ only (ie, no drug). From concentration response curves the concentrations causing 50% inhibition of MDA formation (IC50 values) for the test compounds were determined by computer-assisted linear regression analysis according to published methods (Leutner, 1982). These compared favourably with the values obtained in the assay with the benchmark antioxidant compound trolox. […]

[2] = biological target: NMDA receptor-ionophore complex (polyamine-sensitive ifenprodil binding site); assay: NMDA assay: competitive binding against [125I]ifenprodil in rat cortical membranes; details: 30 min, 20° C., pH 7.7
Protocol: The NMDA receptor-ionophore complex consists of a number of interacting domains, including one for polyamines where ifenprodil binds to exert its non-competitive antagonism.
The purified material was stored in methanol at -20° C.
Incubations were for 30 min. at 20° C., in triplicate, employing 12 concentrations of competing drugs. Non-specific binding was defined with 10 mM spermine. Assays were terminated by rapid filtration through GF/B filter paper and washing.

[3] = system: murine neocortical neurones; assay: Assay for NMDA-induced toxicity in neuronal cultures (MTT); type: cell-based; details: Mus musculus, NMDA 600 μM, 1 h, compound added 30 min prior, read-out: EC50 (inhibition of NMDA-induced toxicity)
Protocol: Neuronal cell death was assessed using a 3-(4,5-dimethylthiazol-2yl)-2,5-diphenyltetrazolium bromide (MTT) assay in which NMDA-induced cellular changes are reflected as altered mitochondrial activity (Ankarcrona et al., 1995), as estimated by the formation of a formazan dye, which is measured spectrophotometrically. The procedure employed is essentially that of Roehm et al. (1991) with minor modifications as previously described elsewhere in work from our laboratories Larm et al. (1996).
Primary cultures of murine neocortical neurones were established as described elsewhere (Larm et al., 1996). The effects of experimental compounds were tested in the cultures at 8 days in vitro. Exposure to NMDA (600 μM, 1 h) and other compounds was performed in an humidified incubator (5% CO2, 8% O2) at 37° C. in anti-oxidant free medium with compounds under evaluation being added 30 min prior to NMDA. For these conditions the culture medium was modified by omitting the following components: D,L-α-tocopherol, D,L-α-tocopherol acetate, catalase, superoxide dismutase and L-glutamine. Other details are described in Larm et al. (1996). Absorbance was read at 570 nm using a Ceres UV900 microplate reader. Control cultures were included in each experiment containing either vehicle alone or vehicle plus compound. These controls were taken as 100% neuronal viability, under the experimental conditions, and each experiment also included 500 μM L-glutamate representing 100% glutamatergic neuronal cell death. Background cell death in vehicle control cultures was 5-8%.
Concentration-response curves were generated as described elsewhere (Larm et al., 1996).

[4] = Gotti et al., 1988; cited from earlier work
[5] = system: polyamine sensitive binding site of the NMDA receptor complex; details: Carter et al., Reynolds et al., Robinson et al.; cited from earlier work
[6] = system: methamphetamine-induced loss of neostriatal tyrosine hydroxylase activity; details: mice; Sonsalla et al., 1991; cited from earlier work
[7] = Fe^3+ 100 μM, read-out: ~IC50 (inhibition of MDA formation), Fe^3+ 100 μM
[8] = Fe^3+ 1000 μM, read-out: ~IC50 (inhibition of MDA formation), Fe^3+ 1000 μM

SMILES | IC50 [1, 7] | IC50 [1, 8] | Ki [2] | EC50 [3] | neuroprotective properties / antiischaemic [4] | interaction with the polyamine sensitive site of the NMDA receptor complex [5] | protection from methamphetamine-induced loss of neostriatal tyrosine hydroxylase activity [6]
C[C@@H]([C@H](O)c1ccc(O)cc1)N1CCN(Cc2cc(C(C)(C)C)c(O)c(C(C)(C)C)c2)CC1 (relative stereo) [2 ((R, S)-racemic)] | ~23.8 µM | ~24.1 µM | 14.5 ± 5.6 µM |  |  |  | 
Cc1c(C)c2c(c(C)c1O)CCC(C)(C(=O)O)O2 (stereo not shown) [trolox, reference compound] | ~88.2 µM | ~90.8 µM |  |  |  |  | 
C[C@@H]([C@H](O)c1ccc(O)cc1)N1CCN(Cc2cc(C(C)(C)C)c(O)c(C(C)(C)C)c2)CC1 (relative stereo) |  |  |  | 3010 nM |  |  | 
CC(C)(C)c1cc(CN2CCN(CC(O)c3ccc(F)cc3)CC2)cc(C(C)(C)C)c1O (stereo not shown) [Compound 161, 1-(2-(4-fluorophenyl)-2-hydroxy)ethyl-4-(3,5-bis(1,1-dimethylethyl)-4-hydroxyphenyl)methylpiperazine] | ~19.5 µM | ~15.2 µM | 5.4 ± 0.6 µM |  |  |  | 
C[C@H]([C@H](O)c1ccc(O)cc1)N1CCN(Cc2cc(C(C)(C)C)c(O)c(C(C)(C)C)c2)CC1 (relative stereo) [2 ((R, R)-racemic)] | ~16.8 µM | ~14.9 µM | 15.7 ± 4.6 µM |  |  |  | 
CC(C)(C)c1cc(CN2CCN(CC(O)c3cccc(Cl)c3)CC2)cc(C(C)(C)C)c1O (stereo not shown) [Example 12, 1-(2-(3-chlorophenyl)-2-hydroxy)ethyl-4-(3,5-bis(1,1-dimethylethyl)-4-hydroxyphenyl)methylpiperazine] |  |  |  | 760 nM |  |  | 
CC(C(O)c1ccc(O)cc1)N1CCC(Cc2ccccc2)CC1 (stereo not shown) [ifenprodil] |  |  | 19.5 ± 1.2 µM |  | neuroprotective properties in models of neurodegeneration following ischaemia | interacting with the polyamine sensitive binding site of the NMDA receptor | protect mice from the methamphetamine-induced loss of neostriatal tyrosine hydroxylase activity
OC(CN1CCC(Cc2ccc(F)cc2)CC1)c1ccc(Cl)cc1 (stereo not shown) [eliprodil] |  |  |  |  | neuroprotective properties in models of neurodegeneration following ischaemia | interacting with the polyamine sensitive binding site of the NMDA receptor | 
C[C@H]([C@H](O)c1ccc(O)cc1)N1CCN(Cc2cc(C(C)(C)C)c(O)c(C(C)(C)C)c2)CC1 (relative stereo) [Compound 2 ((R, R)-racemic)] |  |  |  | 1280 nM |  |  | 
Cc1cc(CN2CCN(CC(O)c3ccc(Cl)cc3)CC2)cc(C(C)(C)C)c1O (stereo not shown) [Compound 265, 1-(2-(4-chlorophenyl)-2-hydroxy)ethyl-4-(3-(1,1-dimethylethyl)-4-hydroxy-5-methylphenyl)methylpiperazine] | ~59.4 µM | ~38.5 µM | 13.2 ± 2.6 µM |  |  |  | 

Continued by falling Ki [2], values first:

IC50 [1, 7] | IC50 [1, 8] | Ki [2] | SMILES | EC50 [3] | neuroprotective properties / antiischaemic [4] | interaction with the polyamine sensitive site of the NMDA receptor complex [5] | protection from methamphetamine-induced loss of neostriatal tyrosine hydroxylase activity [6]
 |  | 19.6 ± 5.2 µM | CC(C)(C)c1cc(CN2CCN(CC(O)c3ccc(Cl)s3)CC2)cc(C(C)(C)C)c1O (stereo not shown) [Compound 229, 1-(2-(2-chlorothiophen-5-yl)-2-hydroxy)ethyl-4-(3,5-bis(1,1-dimethylethyl)-4-hydroxyphenyl)methylpiperazine] |  |  |  | 
 |  | 19.1 ± 5.7 µM | CC(C)(C)c1cc(CN2CCN(CC(O)c3ccc4c(c3)OCO4)CC2)cc(C(C)(C)C)c1O (stereo not shown) [Compound 211, 1-(2-(3,4-methylenedioxyphenyl)-2-hydroxy)ethyl-4-(3,5-bis(1,1-dimethylethyl)-4-hydroxyphenyl)methyl piperazine] |  |  |  | 
~27.9 µM | ~9.3 µM | 16.8 ± 3.2 µM | CC(C)(C)c1cc(CN2CCN(CCC(O)c3ccc(Cl)cc3)CC2)cc(C(C)(C)C)c1O (stereo not shown) [Compound 35, 1-(3-(4-Chlorophenyl)-3-hydroxy)propyl-4-(3,5-bis(1,1-dimethylethyl)-4-hydroxyphenyl)methylpiperazine] |  |  |  | 
~3.6 µM | ~2.4 µM | 15.2 ± 3.9 µM | Cc1c(C)c2c(c(C)c1O)CCC(C)(CN1CCN(CC(O)c3ccc(Cl)cc3)CC1)O2 (stereo not shown) [Compound 49] | 2900 nM |  |  | 
~32.4 µM | ~26.6 µM | 15.1 ± 6.1 µM | CC(C)(C)c1cc(CN2CCN(CC(O)c3cccc([N+](=O)[O-])c3)CC2)cc(C(C)(C)C)c1O (stereo not shown) [Example 6, 1-(2-(3-nitrophenyl)-2-hydroxy)ethyl-4-(3,5-bis(1,1-dimethylethyl)-4-hydroxyphenyl)methyl piperazine] |  |  |  | 
~25.4 µM | ~36.3 µM | 14.6 ± 2.8 µM | CC(C(O)c1ccc(Cl)cc1)N1CCN(Cc2cc(C(C)(C)C)c(O)c(C(C)(C)C)c2)CC1 (stereo not shown) [Compound 34, 1-(2-(4-Chlorophenyl)-2-hydroxy-1-methyl)ethyl-4-(3,5-bis(1,1-dimethylethyl)-4-hydroxyphenyl)methylpiperazine] |  |  |  | 
~32.7 µM | ~18.3 µM | 13 ± 0.6 µM | CC(C)(C)c1cc(CN2CCN(CC(O)c3ccc(O)cc3)CC2)cc(C(C)(C)C)c1O (stereo not shown) [Compound 1, 1-(2-(4-hydroxyphenyl)-2-hydroxy)ethyl-4-(3,5-bis(1,1-dimethylethyl)-4-hydroxyphenyl)methylpiperazine] |  |  |  | 
~59.6 µM | ~22.3 µM | 11.7 ± 1 µM | CC(C)(C)c1cc(CN2CCN(CC(O)c3ccc(OC(F)(F)F)cc3)CC2)cc(C(C)(C)C)c1O (stereo not shown) [Compound 193, 1-(2-(4-trifluoromethoxyphenyl)-2-hydroxy)ethyl-4-(3,5-bis(1,1-dimethylethyl)-4-hydroxyphenyl)methylpiperazine] |  |  |  | 
~57.2 µM | ~41.4 µM | 10.8 ± 0.6 µM | CC(C)(C)c1cc(CN2CCN(CC(O)c3ccc(Cl)cc3)CC2)cc(C(C)(C)C)c1O (stereo not shown) [Compound 33, 1-(2-(4-Chlorophenyl)-2-hydroxy)ethyl-4-(3,5-bis(1,1-dimethylethyl)-4-hydroxyphenyl)methylpiperazine] | 390 nM |  |  | 
~9.9 µM | ~10.3 µM | 8.5 ± 3.1 µM | COc1ccc(OC)c(C(O)CN2CCN(Cc3cc(C(C)(C)C)c(O)c(C(C)(C)C)c3)CC2)c1 (stereo not shown) [Compound 247, 1-(2-(2,5-dimethoxyphenyl)-2-hydroxy)ethyl-4-(3,5-bis(1,1-dimethylethyl)-4-hydroxyphenyl)methylpiperazine] |  |  |  | 
~96.8 µM | ~53.3 µM | 7 ± 1.5 µM | CC(C)(C)c1cc(CN2CCN(CC(O)c3ccc(Br)cc3)CC2)cc(C(C)(C)C)c1O (stereo not shown) [Compound 65, 1-(2-(4-bromophenyl)-2-hydroxy)ethyl-4-(3,5-bis(1,1-dimethylethyl)-4-hydroxyphenyl)methylpiperazine] | 240 nM |  |  | 
< 3 µM | < 1 µM | 6.1 ± 2 µM | Cc1cc(OCCN2CCN(CC(O)c3ccc(Cl)cc3)CC2)c(C)c(C)c1O (stereo not shown) [Example 21, 1-(2-(4'-chlorophenyl)-2-hydroxy)ethyl-4-(2-(2', 3', 5'-trimethyl-4'-hydroxyphenoxy))ethyl piperazine] |  |  |  | 
